Measurements as given in US20110130355A1, “USE OF SOPHORICOSIDE IN THE MANUFACTURE OF MEDICAMENTS” (priority 2008, published 2011).
Marks after values point to notes of the source that are not given here.

How the values were obtained:
Format in all cases: in vivo, SD rats
uterus = experiment: Wet weights of uteri of ovariectomized rats; details: OVX rats, 11 weeks
Protocol: OVX group and the intervention groups: The rats were anesthetized by intraperitoneal injection of 1% pentobarbital sodium at 5 ml/kg. After the onset of anesthesia, the rats were positioned face-down and dehaired at the third lumbar vertebra below the costal arch. The skin was sanitized by benzalkonium bromide and incised by about 1 cm. The subcutaneous tissue and the fascia were incised, and the muscle was bluntly separated. The peritoneum was carefully cut open. White fat was lifted carefully by using tissue forceps inserted to the abdominal cavity through the incision. The fat was gently turned over to expose the quincuncial ovary, which was then ligated by sterile 1 silk thread. The ovary was separated by cutting the oviduct by ophthalmic scissors. After hemostasis by compression, the fat was returned into the abdominal cavity. Subsequently, an incision was made on the opposite side and the same procedures were carried out to excise the ovary on the opposite side. The peritoneum, the fascia, the subcutaneous tissue, and the skin were sutured one by one. The incisions were sanitized.
The vehicle was 1% sodium carboxymethylcellulose (CMC-Na). The sham group and OVX group were administered the vehicle by gavage.
Intervention groups were administered the following formulations of active agents dissolved in the vehicle: […]
The rats were sacrificed by cervical dislocation after 11 weeks. Uteri were removed, weighted, and fixed in 4% paraformaldehyde (PFA). The whole right knee joints were removed and fixed in 4% PFA.
The rats were weighted, and then sacrificed. The uteri were removed from the rats and determined for wet weights.
Statistical analysis of variance was performed. The variance of the wet weights internal to the SHAM group was high, possibly attributing to different stages of menstrual cycle. In all groups, the body weights before the treatment were not statistically different from those after the treatment. The wet weights of uteri obtained from the ovariectomized groups were statistically different from those obtained from the SHAM group (p<0.01), indicating a successful ovariectomy.

ER-α = experiment: Immunohistochemical staining of the estrogen receptor of articular chondrocytes, percentage of positive cells; details: OVX rats, 11 weeks; for ER-α positive cells in the articular cartilage, micrograph in words: FIG. 7; for positive ratio for ER-α expression in the articular chondrocytes, Total: whole knee joint
Protocol: 2) Elimination of endogenous peroxidases: The sections were treated with 3% H2O2-methanol for 10 minutes and washed by PBS for 5 minutes×3;
3) Blocking of Antigen: The sections were treated with 0.3% bovine serum albumin (BSA) for 30 minutes;
The sections were incubated at 4° C. overnight and then washed by PBS for 5 minutes×3;
5) Secondary antibody: After the addition of the biotinylated secondary antibody (1:200) the sections were incubated at 37° C. for 30 minutes and then washed by PBS for 5 minutes×3;
6) Addition of SABC (Streptavidin Biotin Complex): After the addition of SABC (1:300) the sections were incubated at 37° C. for 30 minutes and then washed by PBS for 5 minutes×3;
7) Visualization: 75 μl of 3,3′-diaminobenzidine (DAB) was added per section. After incubation for 3-6 minutes, the sections were observed by microscopy;
The average of the percentages for the four regions was regarded as the total positive cell percentage for the indicated knee joint, and the average of the percentages obtained from two persons was regarded as the final experimental result.
The positive cell percentage=number of the positive chondrocytes in the field/total number of the chondrocytes in the field×100%.

articular chondrocytes = experiment: Apoptotic profiles of articular chondrocytes (TUNEL staining); details: OVX rats, 11 weeks; for apoptotic cells in articular cartilage, in words: FIG. 10; for Apoptotic index of the articular chondrocytes, total: whole knee joint
Source text: When a cell is undergoing apoptosis, the chromosomal DNAs are fragmented in a gradual and staged manner. The chromosomal DNAs are firstly degraded into large fragments of 50-300 kb by endogenous nucleases. Next, about 30% of the chromosomal DNAs were randomly cleaved at internucleosomal regions by the Ca^2+ and Mg^2+ dependent endonucleases to form multimers of 180˜200 bp nucleosomal DNAs. The free 3′-ends resulted from DNA double-strand break or DNA single chain gapping can be labeled by adding a derivative formed by the deoxyribonucleotide and fluorescein, peroxidase, alkaline phosphatase by the terminal deoxynucleotidyl transferase. The apoptotic cells can be detected accordingly. Such methods are generally referred to as terminal deoxynucleotidyl transferase-mediated nick end labeling.
1) Section Dewaxing: The sections were placed in an incubator at 65° C. for 3 hours, and then immersed in xylene for 5 minutes×2, in 100% ethanol for 10 min×2, in 95% ethanol for 5 min×2, in 85% ethanol for 5 minutes, in 75% ethanol for 5 minutes, and in PBS for 5 minutes×2;
2) Pre-treatment: Each of the sections was incubated with 60 μl fresh protease K (20 μg/ml) in a humidified chamber at 37° C. for 20 minutes; and then rinsed with PBS for 2 minutes×2;
3) Elimination of endogenous peroxidases: The sections were treated with 3% H2O2-methanol for 5 minutes and washed by PBS for 5 minutes×2;
4) Equilibration: Each of the sections was rinsed with 75 μl equilibration solution for 10 seconds and decanted, and the residual water was sucked off;
5) Addition of TdT enzyme: […] working solution was added to each of the sections immediately with the […] control untreated, and the sections were placed in a humidified chamber at 37° C. for 1 hour;
6) Quenching: The sections were gently shook in the quenching solution for 15 minutes, and washed by PBS for 3 minutes×3, and decanted gently;
7) Visualization: Each of the sections was incubated with 65 μl antidigoxin-perioxidase in a humidified chamber at room temperature for 30 minutes, and washed by PBS for 2 minutes×4. After incubation with sufficient amount of the perioxidase substrate (75 μl) for 3˜6 minutes, each of the sections was visualized by microscopy;
8) Counterstaining: The sections were rinsed with flowing water for 3 minutes, and subsequently stained by hematoxylin for 10 seconds, then rinsed with flowing water for 10 minutes, immersed in 95% ethanol for 10 minutes×2, immersed in 100% ethanol for 10 minutes×2; placed in xylene for 10 minutes×2; and finally mounted in neutral resin.
The average of the indices for the four regions was regarded as the total apoptotic index for the indicated knee joint, and the average of the indices obtained from two persons was regarded as the final experimental result.
The apoptotic index=number of positive cells in the field/total number of chondrocytes in the field×100%.

O=c1c(-c2ccc(O[C@@H]3O[C@H](CO)[C@@H](O)[C@H](O)[C@H]3O)cc2)coc2cc(O)cc(O)c12 [HDA, 3-[4-(β-D-glucopyranosyl)-benzyl]5,7-dihydro-4H-1-benzopyran-4-one (4′,5,7-trihydroxylisoflavone-4′-D-glucoside)]
Wet weight of uterus (uterus; sophoricoside 10 mg/kg/day): 0.143 ± 0.008 g | Wet weight of uterus (uterus; sophoricoside 20 mg/kg/day): 0.129 ± 0.008 g | Wet weight of uterus (uterus; sophoricoside 40 mg/kg/day): 0.162 ± 0.013 g | Wet weight of uterus (uterus; sophoricoside 80 mg/kg/day): 0.166 ± 0.017 g | ER-α positive cells in the articular cartilage, micrograph in words (ER-α; sophoricoside 10 mg/kg/day): ER-α positive cells within the superficial layer of articular cartilage were much less | ER-α positive cells in the articular cartilage, micrograph in words (ER-α; sophoricoside 20 mg/kg/day): ER-α positive cells within the superficial layer of articular cartilage were much less | ER-α positive cells in the articular cartilage, micrograph in words (ER-α; sophoricoside 80 mg/kg/day): more than the OVX group and similar to normal articular cartilage | positive ratio for ER-α expression in the articular chondrocytes, Total (ER-α; sophoricoside 10 mg/kg/day): 49.520 ± 1.815^□□ % | positive ratio for ER-α expression in the articular chondrocytes, Total (ER-α; sophoricoside 20 mg/kg/day): 58.624 ± 1.707**^□□ % | positive ratio for ER-α expression in the articular chondrocytes, Total (ER-α; sophoricoside 40 mg/kg/day): 65.074 ± 1.306**^□□ % | positive ratio for ER-α expression in the articular chondrocytes, Total (ER-α; sophoricoside 80 mg/kg/day): 77.730 ± 1.125**^□□ % | apoptotic cells in articular cartilage, in words (articular chondrocytes; sophoricoside 20 mg/kg/day): The interventions other than HAD20 decreased the apoptotic chondrocytes | apoptotic cells in articular cartilage, in words (articular chondrocytes; sophoricoside 40 mg/kg/day): weaker | apoptotic cells in articular cartilage, in words (articular chondrocytes; sophoricoside 80 mg/kg/day): less than OVX group and similar to normal articular cartilage | Apoptotic index of the articular chondrocytes, lateral femur (articular chondrocytes; sophoricoside 20 mg/kg/day): 10.269 ± 1.313^□ % | Apoptotic index of the articular chondrocytes, lateral tibia (articular chondrocytes; sophoricoside 20 mg/kg/day): 12.571 ± 1.226^□□ % | Apoptotic index of the articular chondrocytes, medial femur (articular chondrocytes; sophoricoside 20 mg/kg/day): 14.779 ± 1.819^□□ % | Apoptotic index of the articular chondrocytes, medial tibia (articular chondrocytes; sophoricoside 20 mg/kg/day): 13.125 ± 1.891^□□ % | Apoptotic index of the articular chondrocytes, lateral femur (articular chondrocytes; sophoricoside 40 mg/kg/day): 7.991 ± 0.943% | Apoptotic index of the articular chondrocytes, lateral tibia (articular chondrocytes; sophoricoside 40 mg/kg/day): 7.665 ± 0.976**^□ % | Apoptotic index of the articular chondrocytes, medial femur (articular chondrocytes; sophoricoside 40 mg/kg/day): 10.779 ± 1.159% | Apoptotic index of the articular chondrocytes, medial tibia (articular chondrocytes; sophoricoside 40 mg/kg/day): 9.581 ± 0.760*^□ % | Apoptotic index of the articular chondrocytes, lateral femur (articular chondrocytes; sophoricoside 80 mg/kg/day): 5.253 ± 0.923 % | Apoptotic index of the articular chondrocytes, lateral tibia (articular chondrocytes; sophoricoside 80 mg/kg/day): 5.509 ± 0.847 % | Apoptotic index of the articular chondrocytes, medial femur (articular chondrocytes; sophoricoside 80 mg/kg/day): 7.410 ± 0.872 % | Apoptotic index of the articular chondrocytes, medial tibia (articular chondrocytes; sophoricoside 80 mg/kg/day): 6.558 ± 1.121 % | Apoptotic index of the articular chondrocytes, total (articular chondrocytes; sophoricoside 20 mg/kg/day): 12.711 ± 1.178^□□ % | Apoptotic index of the articular chondrocytes, total (articular chondrocytes; sophoricoside 40 mg/kg/day): 9.004 ± 0.588**^□ % | Apoptotic index of the articular chondrocytes, total (articular chondrocytes; sophoricoside 80 mg/kg/day): 6.183 ± 0.738 %
